{"source": "patent US20150284347A1", "about": "“NEW BENZENE SULFONAMIDE THIAZOLE COMPOUNDS” (INSERM (INSTITUT NATIONAL DE LA SANTÉ ET DE LA RECHERCHE …, priority 2012, published 2015)", "key": {"[1]": {"tested_on": "melanoma cells resistant to dabrafenib", "assay": "Trypan blue cell viability, melanoma cells resistant to dabrafenib", "assay_type": "cell-based, human", "settings": "patient melanoma cells resistant to dabrafenib, FIG. 5", "protocol": "The measure of cell viability was performed in the same way as for FIG. 1. Results are expressed as percentage of cells alive relatively to the number of living cells in the presence of DMSO, which is a negative control\nCells were seeded in 6-well plates (60000 cells/well), depleted and incubated with compounds for the times indicated. Then cells were detached in the presence of 2000 of HyQTase (Thermo) and 2 ml of RPMI 1640 Glutamax (Gibco) was added to the cell solution. 100 of this solution was stained for 1 minute with 100 of 0.4% trypan blue before counting with a Malassez chamber.\nMelanoma cells resistant to dabrafenib wee prepared from patients treated and presented a resistance to dabrafenib. dabrafenib, [HA15], [SR47] and [SR50] were tested on these resistant cells, in order to determine their activity on cell viability of resistant melanoma cells, as illustrated in FIG. 5."}, "prostate cells LNCAP": {"tested_on": "prostate cells LNCAP", "assay": "Trypan blue cell viability, LNCAP", "assay_type": "cell-based", "settings": "10 μM, trypan blue exclusion, FIG. 1", "protocol": "(§1) Cell viability was assessed by measuring the number of cells alive in samples of two different kind of prostate cells, respectively noted LNCAP and PC3, of breast cells noted MCF7, of colon cells noted HT29, of metastatic melanoma cell lines A375 and of melanoma cells from patients noted GIC. The measure of cell viability as performed by cell counting using the trypan blue exclusion method. Results were expressed as the percentage of cells alive relatively to the number of living cells in the presence of DMSO, which corresponds to the negative control associated to the 100% value. Cells were seeded in 6-well plates (60000 cells/well), depleted and incubated with compounds for the times indicated. Then cells were detached in the presence of 2000 of […] (Thermo) and 2 ml of RPMI 1640 Glutamax (Gibco) was added to the cell solution. 100 of this solution was stained for 1 minute with 100 of 0.4% trypan blue before counting with a Malassez chamber. The effect of compound on cell viability was studied on different types of cells. […] Cancer cells from prostate, breast, colon and melanoma A375 came from cell lines cultures. […] Results are expressed as percentage of cells alive relatively to the number of living cells in the presence of DMSO, which corresponds to the negative control associated to the 100% value. […]"}, "breast cells MCF7": {"tested_on": "breast cells MCF7", "assay": "Trypan blue cell viability, MCF7", "assay_type": "cell-based", "settings": "10 μM, MCF7, trypan blue exclusion, FIG. 1", "protocol": "as §1"}, "normal human melanocytes": {"tested_on": "normal human melanocytes", "assay": "Trypan blue cell viability, normal melanocytes", "assay_type": "cell-based", "settings": "10 μM, FIG. 2", "protocol": "Primary cell cultures of human normal melanocytes were prepared from human foreskin. In order to determine the effect of compound HA15 on cell viability of melanocytes and fibroblasts, 10 μM of ciglitazone or 10 μM of HA15 were added to the cell samples. The measure of cell viability was performed in the same way as for FIG. 1. Results are expressed as the percentage of living cells relatively to the number of living cells in the presence of DMSO, as for FIG. 1. Normal human melanocytes (NHM) prepared from foreskins of newborns were grown under 5% CO2 at 37° C. in MCDB 153 (Sigma) supplemented with 2% FCS, bovine pituitary extract (10 μg/ml), PMA (8 nM), bFGF (ing/nil), insulin (5 μg/ml), hydrocortisone (0.5 μg/ml), forskolin (10 μM), gentamicin (20 μg/ml), penicillin/streptomycin/amphotericin B (100 U/ml) (Invitrogen). Cells were seeded in 6-well plates (60000 cells/well), depleted and incubated with compounds for the times indicated. Then cells were detached in the presence of 2000 of […] (Thermo) and 2 ml of RPMI 1640 Glutamax (Gibco) was added to the cell solution. 100 of this solution was stained for 1 minute with 100 of 0.4% trypan blue before counting with a Malassez chamber. The effect of compound HA15 on cell viability of melanocytes and fibroblasts was studied, as illustrated by FIG. 2. Primary cell cultures of human normal melanocytes were prepared from human foreskin. […]"}, "normal human fibroblasts": {"tested_on": "normal human fibroblasts", "assay": "Trypan blue cell viability, normal fibroblasts", "assay_type": "cell-based", "settings": "10 μM, FIG. 2", "protocol": "Primary cell cultures of human normal melanocytes were prepared from human foreskin. In order to determine the effect of compound HA15 on cell viability of melanocytes and fibroblasts, 10 μM of ciglitazone or 10 μM of HA15 were added to the cell samples. The measure of cell viability was performed in the same way as for FIG. 1. Results are expressed as the percentage of living cells relatively to the number of living cells in the presence of DMSO, as for FIG. 1. Normal human fibroblasts prepared from foreskins of newborns were grown under 5% CO2 at 37° C. in DMEM medium supplemented with 10% FCS and penicillin/streptomycin (100 U/ml/[…]). Cells were seeded in 6-well plates (60000 cells/well), depleted and incubated with compounds for the times indicated. Then cells were detached in the presence of 2000 of […] (Thermo) and 2 ml of RPMI 1640 Glutamax (Gibco) was added to the cell solution. 100 of this solution was stained for 1 minute with 100 of 0.4% trypan blue before counting with a Malassez chamber. The effect of compound HA15 on cell viability of melanocytes and fibroblasts was studied, as illustrated by FIG. 2. Primary cell cultures of human normal melanocytes were prepared from human foreskin. In order to determine the effect of compound HA15 on cell viability of melanocytes and fibroblasts, 10 μM of ciglitazone or 10 μM of HA15 were added to the cell samples. […]"}}}
{"smiles": "CC(=O)Nc1nc(-c2cccc(NS(=O)(=O)c3cccc4c(N(C)C)cccc34)c2)cs1", "note": "[HA15, N-(4-(3-(5-(dimethylamino)naphthalene-1-sulfonamido)phenyl)thiazol-2-yl)acetamide]", "values": [{"measurement": "cell viability of resistant melanoma cells", "setting": "[1]", "value": "inhibit cell viability of resistant melanoma cells"}, {"measurement": "cell viability (cells alive relative to DMSO)", "setting": "prostate cells LNCAP", "value": "viability greatly reduced"}, {"measurement": "cell viability (cells alive relative to DMSO)", "setting": "breast cells MCF7", "value": "viability greatly reduced"}, {"measurement": "cell viability of normal melanocytes", "setting": "normal human melanocytes", "value": "not affected"}, {"measurement": "cell viability of normal fibroblasts", "setting": "normal human fibroblasts", "value": "not affected"}]}
